In turn, `CCCCCCCCCCCCCC(=O)Nc1ccc2nc(NC(=O)c3ccccc3)sc2c1` returned a melting point of 160 to 167 °C.

The term melting point denotes the temperature, or range, at which the solid turns liquid.
